Results from the METLIN SMRT retention time set (Domingo-Almenara et al. 2019).

Assay: gradient 5% acetonitrile 3 min, to 50% in 2 min, to 85% in 15 min, held 3 min, 100 µL/min
Details: column: Zorbax Extend-C18 2.1 x 50 mm; eluents: water / acetonitrile, 0.1% formic acid
Summary of the method: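 The system's dead and dwell volumes were 40 μL and 900 μL, with a Zorbax Extend-C18 column (2.1 × 50 mm, 1.8 μm) run at 100 μL/min in water and acetonitrile containing 0.1% formic acid each. Pure standards were analyzed in mixtures of ~100 molecules by HPLC–quadrupole time-of-flight mass spectrometry in positive and negative ionization mode. Retention time was assigned from computationally picked, manually inspected adduct peaks.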

Row | Structure (SMILES) | RP-LC retention time
1 | COc1ccc(CCc2nc3nccc(-c4ccc(OC)c(OC)c4)n3n2)cc1 | 856 s
2 | COCCNC(=O)C1CN(C(=O)c2ccco2)CC1c1ccc(OC)cc1OC (stereo not given) | 922 s
3 | Cc1ccc(-n2nc3c(N4CCN(C(=O)NCC5CCCO5)CC4)nnc(C)c3c2C)cc1 (stereo not given) | 590 s
4 | CC(C)c1ccc(NC(=O)C(=O)c2cn(CC(=O)N3CCCC3)c3ccccc23)cc1 | 1140 s
5 | Cc1ccc(-c2csc(NC(=O)C3CCC3)n2)cc1C | 1100 s
6 | Cc1ccc(-c2cc(C(=O)NCCN(C)C)n(C)c2)cc1 | 657 s
7 | O=C1CCCc2cc(S(=O)(=O)N3CCC(C(=O)N4CCCCCC4)CC3)ccc2N1 | 716 s
8 | Cc1ccc(NC(=O)CSc2ccc(N3CCCC(C(=O)NC4CC4)C3)nn2)cc1F (stereo not given) | 664 s
9 | Cc1ccc(NS(=O)(=O)c2cc3c4c(c2)CCC(=O)N4CCC3)cc1C | 880 s
10 | Cc1c(CCC(=O)N[C@H](CCS(C)=O)C(=O)O)c(=O)oc2cc(O)ccc12 (stereo not given in full) | 575 s
11 | O=C1C2N=NN(Cc3nc(-c4ccc5c(c4)OCO5)no3)C2C(=O)N1c1ccc2c(c1)CCC2 (stereo not given) | 1000 s
12 | Cc1nn(C)cc1CN1CC(F)(F)C[C@H]1c1nnc(-c2ccccc2)o1 | 784 s
13 | O=C(Cn1cccc(-c2nc(-c3ccc(F)cc3)no2)c1=O)Nc1ccc(Br)cc1 | 992 s
14 | CCN1CCN(C(=O)Cn2c3ccccc3c3cnn(C)c(=O)c32)CC1 | 580 s
15 | CCn1c(N2CCN(C(=O)Nc3cc(OC)cc(OC)c3)CC2)nc2ccccc21 | 660 s
16 | CC(C)(C)C(=O)N1CCN(c2ncccc2-c2nnc(C3CC3)o2)CC1 | 760 s
17 | CCS(=O)(=O)c1ccc(C(=O)Nc2nnc(Cc3ccc(Cl)s3)o2)cc1 | 735 s
18 | Cc1nnc2ccc(NC3CCCC3)nn12 | 818 s
19 | CCCn1c(=O)c2cc(C(=O)N3CCN(c4ccc(OC)cc4)CC3)nn2c2ccccc21 | 862 s
20 | NC(=O)C1CCN(c2ncnc(N)c2[N+](=O)[O-])CC1 | 512 s
21 | CCOC(=O)N1CCN(C(=O)C2CN(c3nc4ccc(OC)cc4s3)C2)CC1 | 650 s
22 | CCCn1cnc2cc(CNC(=O)CCc3ccccc3)ccc21 | 640 s
23 | COC[C@@H]1OCCN(S(=O)(=O)c2cccc(OC)c2)[C@H]1c1ccccc1 | 927 s

Row | Structure (SMILES) | RP-LC retention time
24 | Cc1sc(NC(=O)c2cccs2)nc1-c1ccccc1 | 1070 s
25 | CC1CCCN(C(=O)CN2CCN(C)CC2)C1 (stereo not given) | 536 s
26 | Cc1cc(N2C=C(C#N)S(=O)(=O)c3ccc(F)cc32)ccc1Br | 979 s
27 | Cc1oc(-c2[nH]ncc2C(=O)N(C)C)cc1S(=O)(=O)Nc1cccc(Cl)c1C | 725 s
28 | O=C(NCc1ccccc1F)c1ccc2ncnc(N3CCCC3)c2c1 | 623 s
29 | O=C(c1ccco1)C(C(c1cccc(Cl)c1)N1CCOCC1)N1CCOCC1 (stereo not given) | 782 s
30 | CCOC(=O)c1ccc(Nc2cc(C(=O)N3CCCCC3)nc3cc(OC)c(OC)cc23)cc1 | 737 s
31 | O=C(NC1CCN(c2cc(-c3cccs3)[nH]n2)C1)c1ccccc1Cl (stereo not given) | 701 s
32 | Cc1cc2c(cc1S(=O)(=O)N(C)CC(=O)N1CCN(c3ccccn3)CC1)OCC(=O)N2 | 583 s
33 | COc1cccc(-n2c(N3CCCC(C(=O)NCCC4=CCCCC4)C3)nc3ccsc3c2=O)c1 (stereo not given) | 1020 s
34 | CCN1CCN(C(=O)C2CCc3sc(C(=O)N4CCCCC4)cc3C2)CC1 (stereo not given) | 613 s
35 | O=C(CSc1nc(N2CCc3ccccc3C2)nc2ccccc12)NC1CCCCC1 | 728 s
36 | CCc1ccc(C(=O)Nc2cnn(CC)c(=O)c2N2CCOCC2)cc1 | 1070 s
37 | c1ccc(-c2nc3nccc(-c4ccccn4)n3n2)cc1 | 820 s
38 | CCNc1nc(C)cc(N2CCN(C(=O)Nc3ccc(Cl)cc3)CC2)n1 | 682 s
39 | O=C(c1ccc2oc(=O)n(CC(=O)N3CCc4ccccc43)c2c1)N1CCCCC1 | 845 s
40 | COc1c(C=O)c(O)cc2c1C(=O)c1ccccc1C2=O | 967 s
41 | O=C(NC1CCCCC1)c1cc2n(n1)CCCN(Cc1ccccc1)C2=O | 891 s
42 | COC(=O)C1(C)CCCC2(C)c3cc(OC)ccc3C(=O)C(Br)C12 (stereo not given) | 1130 s
43 | CCc1ccc(CNC(=O)CN2CCc3ccccc3C2C(=O)N2CCCC2)cc1 (stereo not given) | 860 s
44 | c1cc(-c2nc(-c3ccc4c(c3)ncn4CCN3CCCCC3)no2)cs1 | 609 s
45 | Cc1noc(C)c1S(=O)(=O)N1CCC2(CC1)N(c1ccccc1)C(=O)CS2=O (stereo not given) | 708 s
